For test [1], the system named is IL-12p70 (the complex of IL-12p35 and p40). Kind of test: IL-12p70 production inhibition in macrophages derived from mouse abdomen (IFN-γ/SAC stimulation, ELISA). Conditions: Macrophage; mouse (Balb/c) abdominal macrophages, 100 ng/mL mouse IFN-γ + 0.05% SAC, overnight; TFA salts tested where prepared as such; read-out: IL-12p70-Inhibitory Activity IC50. The test is classed as cell-based. The essentials: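 Thioglycolate-elicited adherent peritoneal macrophages from female Balb/c mice were collected 5–6 days after dosing. Cells were stimulated overnight with 100 ng/mL mouse IFN-γ plus 0.05% (v/v) killed S. aureus Cowan I, with compound present. IL-12p70, IL-12p40 and TNF-α in supernatants were measured by ELISA and IC50s derived, with cell survival also checked.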

The test system of test [2] is TNF-α. Description: TNF-α production inhibition in macrophages derived from mouse abdomen (IFN-γ/SAC stimulation, ELISA). The test is classed as cell-based. Conditions: Macrophage; mouse (Balb/c) abdominal macrophages, 100 ng/mL mouse IFN-γ + 0.05% SAC, overnight; TFA salts tested where prepared as such; read-out: TNF-α-Inhibitory Activity IC50. On the procedure: (§1) One milliliter each of a 3% (w/v) thioglycolate solution was intraperitoneally administered to mice (female Balb/c mice), the abdominal cells of each mouse were recovered after 5 or 6 days from the administration of the thioglycolate solution and the adhesive cells were collected and used in the exaluation procedures. To a culture medium containing such adhesive cells, there were added 100 ng/mL of mouse interferon-γ and a 0.05% (v/v) liquid containing killed cells derived from Staphylococcus aureus Cowan I strain (SAC) and a candidate compound and then the mixture was cultivated overnight. After the completion of the cultivation, the survival ratios were determined, there were quantitatively determined the quantities of IL-12p70 (the complex of IL-12p35 and p40) and IL-12p40 or TNF-α according to the ELISA assays while making use of the recovered supernatant of the culture medium and the 50% production-inhibitory concentration (IC50) was calculated for each case (see Table 1 and Tables 1-9 for IL-12p70 and TNF-α and Tables 1 to 10 for IL-12p40).
On the technique in general: In an ELISA, binding on a coated surface is turned into a signal by an enzyme label.

The test system of test [3] is IL-12p40. Kind of test: IL-12p40 production inhibition in macrophages derived from mouse abdomen (IFN-γ/SAC stimulation, ELISA). Format: cell-based. The settings on record: Macrophage; mouse (Balb/c) abdominal macrophages, 100 ng/mL mouse IFN-γ + 0.05% SAC, overnight. On the procedure:
as §1

The subject of test [4] is IL-12p70 (the complex of IL-12p35 and p40). Description: IL-12p70 production inhibition in whole blood of mouse (IFN-γ/SAC stimulation, ELISA). Format: cell-based. Conditions: mouse (Balb/c) whole blood, EDTA, 100 ng/mL mouse IFN-γ + 1.25% SAC, overnight; TFA salts tested where prepared as such. As to the method: The blood was recovered from the mice (female Balb/c mice) (containing added EDTA) and it was used for the evaluation. To a cell culture medium, there were added 100 ng/mL of mouse interferon-γ, 1.25% (v/v) of a liquid containing killed cells derived from Staphylococcus aureus Cowan I strain (SAC) and a candidate compound, the resulting mixture was diluted to a volume equivalent to the blood and then the diluted medium was cultivated overnight. After the completion of the cultivation, the amount of IL-12p70 (the complex of IL-12p35 and p40) was quantitatively determined according to the ELISA assays while making use of the recovered supernatant of the culture medium and the 50% production-inhibitory concentrations (IC50) were calculated for Compounds 38, 80, 82, 83, 84, 85, 87, 90 and 91. (see Table 3).

In test [5] the test system is mouse enteritis model. Kind of test: Inflammation-inhibitory action in mouse enteritis model (immigration of IL-10-/- cells), weight of large intestine. The test is classed as in vivo. The source says:
The method for establishing the mouse enteritis model by the immigration of IL-10−/−cells is, for instance, disclosed in Gastroenterology. 2009 February; 136(2): 564-74.e2. Epub 2008 Oct. 7.
The following method was used for the determination of the weight of intestinal tract as an indication of the drug efficacy: On the final day of the autopsy, the large intestine extending from the anus to immediately before the blind gut was surgically excised, the contents of the intestinal tract were washed away with physiological saline, the moisture adhered thereto was roughly removed and then the weight thereof was determined.
The inflammation-inhibitory effect of Compound 1 on the mouse enteritis model was evaluated using this evaluation system and the results obtained were plotted on FIG. 1.

This is an account of results in patent publication US8314098B2, “Pyrazolo-pyrimidine compounds” (Ajinomoto Co., Inc., priority 2008, dated 2012).

For the compound `Cc1cccc(/C=N/Nc2cc(N3CCOCC3)n3nccc3n2)c1` [Compound 9, N-(3-methyl-benzylidene)-N′-(7-morpholin-4-yl-pyrazolo-[1,5-a]pyrimidin-5-yl)-hydrazine], the IC50 (as a rule, the point on the concentration scale where inhibition reaches its midpoint) in test [1] was 141 nM; in test [2], greater than 10000 nM; in test [3] it was 136 nM.
As for `Cc1cccc(/C=N/Nc2cc(N3CCOCC3)n3nc(-c4cccnc4)cc3n2)c1` [Compound 38, N-(3-methyl-benzylidene)-N′-(7-morpholin-4-yl-2-pyridin-3-yl-pyrazolo[1,5-a]pyrimidin-5-yl)-hydrazine], the values for the concentration for half-maximal inhibition (IC50) in test [1], in test [2] and in test [4] were 11 nM, greater than 10000 nM and 2700 nM, respectively.
In the same order, the values of `Cc1cc2nc(N/N=C/c3c[nH]c4ccccc34)cc(N3CCOCC3)n2n1` [Compound 80, N-(1H-indol-3-yl-methylidene)-N′-(2-methyl-7-morpholin-4-yl-pyrazolo[1,5-a]pyrimidin-5-yl)-hydrazine] are 160 nM, greater than 10000 nM and 4900 nM.
As for `C(=N\Nc1cc(N2CCOCC2)n2nc(-c3cccnc3)cc2n1)/c1c[nH]c2ccccc12` [Compound 82, N-(1H-indol-3-yl-methylidene)-N′-(7-morpholin-4-yl-2-pyridin-3-yl-pyrazolo[1,5-a]pyrimidin-5-yl)-hydrazine], the IC50 in test [1] was 4.1 nM; in test [2], greater than 10000 nM; in test [4] it was 3200 nM.
For `Cc1cccc(/C=N/Nc2cc(N3CCOCC3)n3nc(-c4ccncc4)cc3n2)c1` [Compound 83, N-(3-methyl-benzylidene)-N′-(7-morpholin-4-yl-2-pyridin-4-yl-pyrazolo[1,5-a]pyrimidin-5-yl)-hydrazine], the “control effect on weight of the large intestine” value in test [5] (mouse enteritis model, 30 mg/kg once a day) is reported as “significant control effect”. Moreover, in test [5] (mouse enteritis model, 3, 10, 30 mg/kg, FIG. 1), the “weight of the large intestine increased due to the immigration of IL-10-/- cells” value is recorded as “controlled in a dose of Compound 83-dependent manner”. The IC50 in test [1] was 8.4 nM; in test [2], greater than 10000 nM; in test [4], 880 nM; in test [3], 11.3 nM.
`C(=N\Nc1cc(N2CCOCC2)n2nc(-c3ccncc3)cc2n1)/c1c[nH]c2ccccc12` [Compound 84, N-(1H-indol-3-yl-methylidene)-N′-(7-morpholin-4-yl-2-pyridin-4-yl-pyrazolo[1,5-a]pyrimidin-5-yl)-hydrazine]: the IC50 in test [1] was 3.2 nM; in test [2] it was greater than 10000 nM; in test [4], 2300 nM.
For `Cc1cccc(/C=N/Nc2cc(N3CCOCC3)n3nc(-c4ccc(N5CCOCC5)nc4)cc3n2)c1` [Compound 85, N-(3-methyl-benzylidene)-N′-[7-morpholin-4-yl-2-(6-morpholin-4-yl-pyridin-3-yl)-pyrazolo[1,5-a]pyrimidin-5-yl]-hydrazine], in that order: 3.2 nM, greater than 10000 nM and 4200 nM.
Consider `CCc1cccc(/C=N/Nc2cc(N3CCOCC3)n3nc(-c4cnccn4)cc3n2)c1` [Compound 116, N-(3-ethyl-benzylidene)-N-(7-morpholin-4-yl-2-pyrazin-2-yl-pyrazolo[1,5-a]pyrimidin-5-yl)-hydrazine], for which the concentration for half-maximal inhibition (IC50) was found to be 49 nM in test [1] and 3800 nM in test [4].
Regarding `C(=N\Nc1cc(N2CCOCC2)n2nc(-c3ccncc3)cc2n1)/c1ccc2cc[nH]c2c1` [Compound 117, N-(1H-indol-6-yl-methylidene)-N′-(7-morpholin-4-yl-2-pyridin-4-yl-pyrazolo[1,5-a]pyrimidin-5-yl)-hydrazine], the values for the 50% inhibitory concentration (IC50) in test [1], in test [4] and in test [3] were 56 nM, 280 nM and 97.8 nM, respectively.
Consider `CCc1cccc(/C=N/Nc2cc(N3CCOCC3)n3nc(-c4ccncc4)cc3n2)c1` [Compound 118, N-(3-ethyl-benzylidene)-N-(7-morpholin-4-yl-2-pyridin-4-yl-pyrazolo[1,5-a]pyrimidin-5-yl)-hydrazine], for which the results for the IC50 in test [1] and in test [4] were 29 nM and 640 nM, respectively.
Consider `Cc1cccc(/C=N/Nc2cc(N3CCOCC3)n3nc(-c4ccncn4)cc3n2)c1` [Compound 119, N-(3-methyl-benzylidene)-N-(7-morpholin-4-yl-2-pyrimidin-4-yl-pyrazolo[1,5-a]pyrimidin-5-yl)-hydrazine], for which the concentration for half-maximal inhibition (IC50) in test [1] was determined as 47 nM; in test [4], 1000 nM; in test [3], 70 nM.
For `Cc1cccc(/C=N/Nc2cc(N3CC4C[C@H]3CO4)n3nc(-c4ccncc4)cc3n2)c1` [Compound 121, N-(3-methyl-benzylidene)-N′-[7-(2-oxo-5-azabicyclo-[2.2.1]hept-5-yl)-2-pyridin-4-yl-pyrazolo[1,5-a]pyrimidin-5-yl]-hydrazine], in that order: 79 nM, 840 nM and 150 nM.
As to `C(=N\Nc1cc(N2CCOCC2)n2nc(-c3ccncc3)cc2n1)/c1ccnc2ccccc12` [Compound 122, N-(7-morpholin-4-yl-2-pyridin-4-yl-pyrazolo[1,5-a]-pyrimidin-5-yl)-N′-quinolin-4-yl-methylidene-hydrazine], the results for the half-inhibitory concentration (IC50) in test [1] and in test [4] were 5.6 nM and 2400 nM, respectively.
For `Cc1cccc(/C=N/Nc2cc(N3CC4COCC4C3)n3nc(-c4ccncc4)cc3n2)c1` (stereo not drawn) [Compound 123, N-(3-methyl-benzylidene)-N′-[2-pyridin-4-yl-7-(tetrahydro-furo[3,4-c]pyrrol-5-yl)-pyrazolo[1,5-a]pyrimidin-5-yl]-hydrazine], in that order: 300 nM and 440 nM.
In the same order, the values of `C(=N\Nc1cc(N2CCOCC2)n2nc(-c3ccncc3)cc2n1)/c1c[nH]c2ncccc12` [Compound 126, N-(7-morpholin-4-yl-2-pyridin-4-yl-pyrazolo[1,5-a]-pyrimidin-5-yl)-N′-(1H-pyrrolo[2,3-b]pyridin-3-yl-methylidene)-hydrazine] are 110 nM and 760 nM.
In the same order, the values of `C(=N\Nc1cc(N2CCOCC2)n2nc(N3CCOCC3)cc2n1)/c1c[nH]c2ccccc12` [Compound 128, N-(1H-indol-3-yl-methylidene)-N-(2,7-di-morpholin-4-yl-pyrazolo[1,5-a]pyrimidin-5-yl)-hydrazine] are 140 nM and 4600 nM.
